Assay results reported in ChEMBL document CHEMBL1649287, “Postantibiotic effect of ceftaroline against gram-positive organisms” (2009).
Converted amounts (≈) assume the structure as drawn.

Key:
Type in all cases: functional
Enterococcus faecalis [1] = assay: Antimicrobial activity against vancomycin-resistant Enterococcus faecalis 266 assessed as time required to induce post antibiotic sub-MIC effect at 0.2 times MIC after 1 hr by plate counting method; details: Enterococcus faecalis, 266, 1 h
Streptococcus pneumoniae [2] = assay: Antimicrobial activity against Penicillin-susceptible Streptococcus pneumoniae s502 assessed as post antibiotic effect at 10 times MIC after 1 hr by plate counting method; details: s502, 1 h
Enterococcus faecalis [3] = assay: Antimicrobial activity against vancomycin-sensitive Enterococcus faecalis ATCC 29212 by microdilution method
Streptococcus pneumoniae [4] = assay: Antimicrobial activity against Penicillin-intermediate Streptococcus pneumoniae s1234 assessed as time required to induce post antibiotic sub-MIC effect at 0.3 times MIC after 1 hr by plate counting method; details: s1234, 1 h
Streptococcus pneumoniae [5] = assay: Antimicrobial activity against Penicillin-susceptible Streptococcus pneumoniae ATCC 49617 assessed as time required to induce post antibiotic sub-MIC effect at 0.3 times MIC after 1 hr by plate counting method; details: ATCC 49617, 1 h
Staphylococcus aureus [6] = assay: Antimicrobial activity against methicillin-resistant, vancomycin-intermediate Staphylococcus aureus 510 assessed as time required to induce sub-MIC effect at 0.3 times MIC after 1 hr by plate counting method; details: Staphylococcus aureus, 510, 1 h
Streptococcus pneumoniae [7] = assay: Antimicrobial activity against Penicillin-intermediate Streptococcus pneumoniae s1234 assessed as time required to induce sub-MIC effect at 0.3 times MIC after 1 hr by plate counting method
Streptococcus pneumoniae [8] = assay: Antimicrobial activity against Penicillin-intermediate Streptococcus pneumoniae s1234 assessed as time required to induce post antibiotic sub-MIC effect at 0.4 times MIC after 1 hr by plate counting method; details: s1234, 1 h
Staphylococcus aureus [9] = assay: Antimicrobial activity against methicillin-resistant, vancomycin-hetroresistant Staphylococcus aureus 618 assessed as post antibiotic effect at 10 times MIC after 1 hr by plate counting method; details: Staphylococcus aureus, 618, 1 h
Staphylococcus aureus [10] = assay: Antimicrobial activity against methicillin-resistant, vancomycin-susceptible Staphylococcus aureus vs1 assessed as time required to induce sub-MIC effect at 0.2 times MIC after 1 hr by plate counting method; details: vs1, 1 h
Streptococcus pneumoniae [11] = assay: Antimicrobial activity against Penicillin-, erythromycin-resistant Streptococcus pneumoniae 37 assessed as time required to induce post antibiotic sub-MIC effect at 0.4 times MIC after 1 hr by plate counting method; details: Streptococcus pneumoniae, 37, 1 h
Staphylococcus aureus [12] = assay: Antimicrobial activity against methicillin-resistant, vancomycin-resistant Staphylococcus aureus 770 assessed as time required to induce post antibiotic sub-MIC effect at 0.2 times MIC after 1 hr by plate counting method; details: Staphylococcus aureus, 770, 1 h
Staphylococcus aureus [13] = assay: Antimicrobial activity against methicillin-susceptible, vancomycin-susceptible Staphylococcus aureus ATCC 29213 assessed as post antibiotic effect at 10 times MIC after 1 hr by plate counting method; details: ATCC 29213, 1 h
Enterococcus faecalis [14] = assay: Antimicrobial activity against vancomycin-sensitive Enterococcus faecalis 20 assessed as time required to induce post antibiotic sub-MIC effect at 0.4 times MIC after 1 hr by plate counting method; details: Enterococcus faecalis, 20, 1 h
Staphylococcus aureus [15] = assay: Antimicrobial activity against methicillin-resistant, vancomycin-intermediate Staphylococcus aureus 510 assessed as time required to induce post antibiotic sub-MIC effect at 0.4 times MIC after 1 hr by plate counting method; details: Staphylococcus aureus, 510, 1 h
Streptococcus pneumoniae [16] = assay: Antimicrobial activity against Penicillin-susceptible Streptococcus pneumoniae ATCC 49617 assessed as time required to induce post antibiotic sub-MIC effect at 0.2 times MIC after 1 hr by plate counting method; details: ATCC 49617, 1 h
Staphylococcus aureus [17] = assay: Antimicrobial activity against methicillin-susceptible, vancomycin-susceptible Staphylococcus aureus sox1 assessed as time required to induce sub-MIC effect at 0.3 times MIC after 1 hr by plate counting method; details: sox1, 1 h
Staphylococcus aureus [18] = assay: Antimicrobial activity against methicillin-resistant, vancomycin-resistant Staphylococcus aureus 770 assessed as time required to induce post antibiotic sub-MIC effect at 0.3 times MIC after 1 hr by plate counting method; details: Staphylococcus aureus, 770, 1 h
Staphylococcus aureus [19] = assay: Antimicrobial activity against methicillin-resistant, vancomycin-intermediate Staphylococcus aureus 510 assessed as time required to induce post antibiotic sub-MIC effect at 0.2 times MIC after 1 hr by plate counting method; details: Staphylococcus aureus, 510, 1 h
Enterococcus faecalis [20] = assay: Antimicrobial activity against vancomycin-resistant Enterococcus faecalis 266 assessed as time required to induce sub-MIC effect at 0.2 times MIC after 1 hr by plate counting method; details: Enterococcus faecalis, 266, 1 h
Enterococcus faecalis [21] = assay: Antimicrobial activity against vancomycin-sensitive Enterococcus faecalis ATCC 29212 assessed as post antibiotic effect at 10 times MIC after 1 hr by plate counting method; details: ATCC 29212, 1 h
Enterococcus faecalis [22] = assay: Antimicrobial activity against vancomycin-sensitive Enterococcus faecalis 20 assessed as post antibiotic effect at 10 times MIC after 1 hr by plate counting method; details: Enterococcus faecalis, 20, 1 h
Enterococcus faecalis [23] = assay: Antimicrobial activity against vancomycin-sensitive Enterococcus faecalis ATCC 29212 assessed as time required to induce post antibiotic sub-MIC effect at 0.2 times MIC after 1 hr by plate counting method; details: ATCC 29212, 1 h
Staphylococcus aureus [24] = assay: Antimicrobial activity against methicillin-susceptible, vancomycin-susceptible Staphylococcus aureus sox1 assessed as time required to induce post antibiotic sub-MIC effect at 0.2 times MIC after 1 hr by plate counting method; details: sox1, 1 h
Staphylococcus aureus [25] = assay: Antimicrobial activity against methicillin-resistant, vancomycin-intermediate Staphylococcus aureus 510 assessed as time required to induce post antibiotic sub-MIC effect at 0.3 times MIC after 1 hr by plate counting method; details: Staphylococcus aureus, 510, 1 h
Staphylococcus aureus [26] = assay: Antimicrobial activity against methicillin-resistant, vancomycin-hetroresistant Staphylococcus aureus 618 assessed as time required to induce post antibiotic sub-MIC effect at 0.2 times MIC after 1 hr by plate counting method; details: Staphylococcus aureus, 618, 1 h
Staphylococcus aureus [27] = assay: Antimicrobial activity against methicillin-susceptible, vancomycin-susceptible Staphylococcus aureus ATCC 29213 by microdilution method
Staphylococcus aureus [28] = assay: Antimicrobial activity against methicillin-resistant, vancomycin-susceptible Staphylococcus aureus vs1 assessed as time required to induce sub-MIC effect at 0.3 times MIC after 1 hr by plate counting method; details: vs1, 1 h
Streptococcus pneumoniae [29] = assay: Antimicrobial activity against Penicillin-susceptible Streptococcus pneumoniae ATCC 49617 assessed as post antibiotic effect at 10 times MIC after 1 hr by plate counting method; details: ATCC 49617, 1 h
Streptococcus pneumoniae [30] = assay: Antimicrobial activity against Penicillin-susceptible Streptococcus pneumoniae s502 assessed as time required to induce post antibiotic sub-MIC effect at 0.3 times MIC after 1 hr by plate counting method; details: s502, 1 h
Streptococcus pneumoniae [31] = assay: Antimicrobial activity against Penicillin-intermediate Streptococcus pneumoniae s1234 by microdilution method
Staphylococcus aureus [32] = assay: Antimicrobial activity against methicillin-resistant, vancomycin-susceptible Staphylococcus aureus vs1 assessed as post antibiotic effect at 10 times MIC after 1 hr by plate counting method; details: vs1, 1 h
Staphylococcus aureus [33] = assay: Antimicrobial activity against methicillin-resistant, vancomycin-resistant Staphylococcus aureus 770 assessed as time required to induce sub-MIC effect at 0.4 times MIC after 1 hr by plate counting method; details: Staphylococcus aureus, 770, 1 h
Streptococcus pneumoniae [34] = assay: Antimicrobial activity against Penicillin-, erythromycin-resistant Streptococcus pneumoniae 37 by microdilution method
Enterococcus faecalis [35] = assay: Antimicrobial activity against vancomycin-sensitive Enterococcus faecalis 20 assessed as time required to induce sub-MIC effect at 0.4 times MIC after 1 hr by plate counting method; details: Enterococcus faecalis, 20, 1 h

CCO/N=C(\C(=O)N[C@@H]1C(=O)N2C(C(=O)[O-])=C(Sc3nc(-c4cc[n+](C)cc4)cs3)CS[C@H]12)c1nsc(NP(=O)(O)O)n1 [CEFTAROLINE FOSAMIL]
time (Enterococcus faecalis [1]): 8.3 h
PAE (Streptococcus pneumoniae [2]): 1.8 h
MIC (Enterococcus faecalis [3]): 1 µg/mL (≈ 1.46 µM)
PAE (Streptococcus pneumoniae [4]): 1.8 h
PAE (Streptococcus pneumoniae [5]): 5.9 h
time (Staphylococcus aureus [6]): 0.7 h
PAE (Streptococcus pneumoniae [7]): 0 h
PAE (Streptococcus pneumoniae [8]): 2.5 h
PAE (Staphylococcus aureus [9]): 0.7 h
time (Staphylococcus aureus [10]): 0.4 h
time (Streptococcus pneumoniae [11]): 3.7 h
time (Staphylococcus aureus [12]): 1.5 h
PAE (Staphylococcus aureus [13]): 1 h
PAE (Enterococcus faecalis [14]): 10.5 h
time (Staphylococcus aureus [15]): > 10 h
PAE (Streptococcus pneumoniae [16]): 4.1 h
PAE (Staphylococcus aureus [17]): 0.9 h
time (Staphylococcus aureus [18]): 5 h
time (Staphylococcus aureus [19]): 5.4 h
time (Enterococcus faecalis [20]): 1.4 h
PAE (Enterococcus faecalis [21]): 0.8 h
PAE (Enterococcus faecalis [22]): 0.5 h
PAE (Enterococcus faecalis [23]): 7.6 h
time (Staphylococcus aureus [24]): 2.2 h
time (Staphylococcus aureus [25]): > 9.1 h
time (Staphylococcus aureus [26]): 2.2 h
MIC (Staphylococcus aureus [27]): 0.25 µg/mL (≈ 0.365 µM)
time (Staphylococcus aureus [28]): 0.7 h
PAE (Streptococcus pneumoniae [29]): 1.6 h
PAE (Streptococcus pneumoniae [30]): 3.5 h
MIC (Streptococcus pneumoniae [31]): 0.12 µg/mL (≈ 0.175 µM)
PAE (Staphylococcus aureus [32]): 1.2 h
time (Staphylococcus aureus [33]): 0.6 h
MIC (Streptococcus pneumoniae [34]): 0.25 µg/mL (≈ 0.365 µM)
PAE (Enterococcus faecalis [35]): 3.6 h
